# Source: patent EP1021178B1, “SELENOPHENE ANTI-TUMOR AGENTS” (Purdue Research Foundation, priority 1996, dated 1997)
# Key:
# Test in all cases: NCI human tumor cell panel
# UO-31 = conditions: UO-31, read-out: Log10 LC50 (converted)
# NCI-H23 = conditions: NCI-H23, read-out: Log10 LC50 (converted)
# OVCAR-8 = conditions: OVCAR-8, read-out: Log10 LC50 (converted)
# MALME-3M = conditions: read-out: Log10 LC50 (converted)
# SK-MEL-5 = conditions: SK-MEL-5, read-out: Log10 LC50 (converted)
# TK-10 = conditions: TK-10, read-out: Log10 LC50 (converted)
# SW-620 = type: cell-based; conditions: SW-620, read-out: Log10 LC50 (converted)
# Source text: (§1) Considering the diversity of tumors in terms of cell type, morphology, growth rate and other cellular characteristics, the U.S. National Cancer Institute (NCI) has developed a "disease-oriented" approach to antitumor activity screening (M.R. Boyd, in "Principle of Practice of Oncology" J.T. Devita, S. Hellman, S.A. Rosenberg (Eds.) Vol. 3, PPO Update, No. 10, 1989). This in vitro prescreening system is based on the measurement of antitumor cytotoxicity against human tumor cell line panels consisting of approximately 60 cell lines of major human tumors (including leukemia and slower growing tumor cells such as lung, colon, breast, skin, kidney, etc.). The most important advantage of the new in vitro screening panels is the opportunity to identify compounds that are selectively more cytotoxic to cells of slowly growing solid tumors than to rapidly growing leukemia cells.
# (§2) The cytotoxic activity of the present selenophene compounds have been measured utilizing two different assays or screens. The first screen measures the cytotoxicity against a panel of sixty different human tumor cell lines. This assay provides data regarding the general cytotoxicity of an individual compound. In particular this type of assay is useful in identifying compounds which have enhanced cytotoxic activity against slow growing tumors as compared to faster growing tumor cells such as leukemia tumor cell lines. The identification of such compounds is critical since previously identified antitumor agents have low cytotoxic activity against slower growing tumors. […] The specificity of a cytotoxic compound for tumor cell lines relative to normal cells is an important characteristic of an effective antitumor agent.
# (§3) Antitumor cytotoxicity data generated from the National Cancer Institute human tumor cell panels can also be expressed in a graphic pattern (mean graph) to display differential cell growth inhibition (K.D. Paull, R.H. Shoemaker, L. Hodes, A. Monks, D.A. Scudiero, L. Rubinstein, J. Plowman and M.R. Boyd, J. Nail. Cancer Inst., 81, 1088, 1989.) In the mean graph, the arithmetic mean of the logarithm of the GI50 (50% growth inhibition), TGI (total growth inhibition) or LC50 (50% lethal concentration) values is used as an anchor point. […] The length of a bar is indicative of differential cytotoxicity against a specific type of tumor cells or tumor panels.
# (§4) The antitumor cytotoxicity of the selenophene compounds tested in those in vitro assays was measured by a microculture assay using either a 3-(4,5-dimethylthiazol-2-yl)-2,5-diphenyltetrazolium bromide (MTT) or sulforhodamine B (SRB) based assay. [M.R. Boyd in "Principles and Practices of Oncology," V.T. DeVita, Jr.]. The experiments were conducted at Purdue University in 96-well microtiter plates and the cytotoxic effects of the selenophene compounds on those cells were measured by cell count using a Coulter Z.F. counter (Hialeah, FL). The results are expressed as GI50, the concentration of drug at which cell numbers are reduced to 50% of control cell culture [T.C.K. Chan, C.J. Chang, N.M. Koonchanok and R.L. Geahlen, Biochem. Biophys. Res. Commun., 193, 1152, (1993); S. Hellman and S.A. Rosenberg (Eds.), Vol. 3, PPO Updates, Number 10, (1989).]
# (§5) This in vitro microculture assay has an advantage over in vivo assays in that results are obtained within a week as opposed to several months. The MTT assay is based on the production of a dark blue formazan product by dehydrogenase in the mitochondria of live tumor cells after exposure to drug for 6 days [M.C. Alley, D.A. Scudiero, A. Monks, M.L. Hursey, M.J. Czerwinski, D.L. Fine, B.J. Abbott, J.G. Mayo, R.H. Shoemaker and M.R. Boyd, Cancer Res., 48, 589, 1988]. Thus, only live cells are stained and can be measured at 570 nm. […]
# HOP-62 = type: cell-based; conditions: HOP-62, read-out: Log10 LC50 (converted)
# Source text: as §1, §2, §3, §4, §5
# SF-539 = type: cell-based; conditions: SF-539, read-out: Log10 LC50 (converted)
# Source text: as §1, §2, §3, §4, §5
# ACHN = type: cell-based; conditions: read-out: Log10 LC50 (converted)
# Source text: as §1, §2, §3, §4, §5
# PC-3 = type: cell-based; conditions: PC-3, read-out: Log10 LC50 (converted)
# Source text: as §1, §2, §3, §4, §5
# MOLT-4 = type: cell-based; conditions: MOLT-4, read-out: Log10 LC50 (converted)
# Source text: as §1, §2, §3, §4, §5
# A498 = type: cell-based; conditions: A498, read-out: Log10 LC50 (converted)
# Source text: as §1, §2, §3, §4, §5
# NCI-H522 = type: cell-based; conditions: NCI-H522, read-out: Log10 LC50 (converted)
# Source text: as §1, §2, §3, §4, §5
# A549/ATCC = type: cell-based; conditions: A549, read-out: Log10 LC50 (converted)
# Source text: as §1, §2, §3, §4, §5
# MDA-MB-435 = conditions: for CC50: MDA-MB-435, read-out: Log10 LC50 (converted)
# HT29 = conditions: HT-29, read-out: Log10 LC50 (converted)
# EKVX = conditions: for CC50: read-out: Log10 LC50 (converted)
# SF-295 = conditions: SF-295, read-out: Log10 LC50 (converted)
# SNB-75 = conditions: SNB-75, read-out: Log10 LC50 (converted)
Structure (SMILES),CC50 (UO-31),CC50 (NCI-H23),CC50 (OVCAR-8),CC50 (MALME-3M),CC50 (SK-MEL-5),CC50 (TK-10),CC50 (SW-620),CC50 (HOP-62),CC50 (SF-539),CC50 (ACHN),CC50 (PC-3),CC50 (MOLT-4),CC50 (A498),CC50 (NCI-H522),CC50 (A549/ATCC),CC50 (MDA-MB-435),CC50 (HT29),CC50 (EKVX),CC50 (SF-295),CC50 (SNB-75),also measured
OCc1ccc(-c2ccc(-c3ccc(CO)s3)[se]2)s1,> 100 µM,> 100 µM,> 100 µM,> 100 µM,> 100 µM,> 100 µM,> 100 µM,> 100 µM,> 100 µM,> 100 µM,> 100 µM,> 100 µM,0.158 µM,> 100 µM,> 100 µM,> 100 µM,> 100 µM,> 100 µM,> 100 µM,–,–
OCc1ccc(-c2ccc(-c3ccc(CO)[se]3)s2)[se]1,> 100 µM,> 100 µM,> 100 µM,> 100 µM,> 100 µM,> 100 µM,> 100 µM,> 100 µM,> 100 µM,> 100 µM,> 100 µM,> 100 µM,0.0955 µM,–,> 100 µM,> 100 µM,> 100 µM,> 100 µM,> 100 µM,> 100 µM,"IC (TGI) (MDA-MB-435; MDA-MB-435, read-out: Log10 TGI): > 100 µM"
O=Cc1ccc(-c2ccc(-c3ccc(C=O)[se]3)s2)[se]1,> 100 µM,> 100 µM,> 100 µM,> 100 µM,> 100 µM,> 100 µM,> 100 µM,> 100 µM,> 100 µM,> 100 µM,> 100 µM,> 100 µM,–,> 100 µM,> 100 µM,> 100 µM,> 100 µM,> 100 µM,> 100 µM,> 100 µM,IC (TGI) (EKVX; read-out: Log10 TGI): > 100 µM
O=Cc1ccc(-c2ccc(-c3ccc[se]3)[se]2)[se]1,53.7 µM,69.2 µM,95.5 µM,64.6 µM,37.2 µM,25.1 µM,–,74.1 µM,63.1 µM,46.8 µM,87.1 µM,> 100 µM,6.31 µM,42.7 µM,51.3 µM,> 100 µM,36.3 µM,> 100 µM,53.7 µM,> 100 µM,–
O=Cc1ccc(-c2ccc(-c3ccc(C=O)s3)[se]2)s1,–,> 100 µM,> 100 µM,> 100 µM,> 100 µM,> 100 µM,> 100 µM,> 100 µM,> 100 µM,> 100 µM,> 100 µM,> 100 µM,4.07 µM,> 100 µM,> 100 µM,> 100 µM,> 100 µM,> 100 µM,> 100 µM,> 100 µM,–
